Values after ≈ are worked out from the molar mass of the structure shown. Where two headings read alike, the source gives them in different places.
What was measured:
human (hACC2) = human (hACC2) (Homo sapiens, UniProt O00763); assay: In vitro ACC inhibition assay (ADP-Glo), hACC2; assay type: biochemical; details: 5 nM ACC2, 20 μM ATP, 20 μM acetyl-CoA
Procedure: The detailed procedure is as follows. […] 10 μL ADP glo reagent was added. […] 20 μL kinase detection reagent was added.

C. albicans = assay: Antifungal Activity Assay (broth microtiter MIC), C. albicans; assay type: cell-based, Candida albicans; details: Candida albicans, ATCC90028, 48 h
Summary of the method: (§1)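 MICs were scored by eye at 48 h relative to the growth control. Plates followed CLSI M27-A3, with Candida suspensions in RPMI 1640+MOPS giving a final 2.5×10^3 CFU/mL; the colonies came from Sabouraud agar grown overnight at 35 °C.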

C. krusei = assay: Antifungal Activity Assay (broth microtiter MIC), C. krusei; assay type: cell-based, Candida krusei; details: Pichia kudriavzevii, ATCC6258, 48 h
Summary of the method: as §1

C. parapsilosis = assay: Antifungal Activity Assay (broth microtiter MIC), C. parapsilosis; assay type: cell-based, Candida parapsilosis; details: Lodderomyces parapsilosis, ATCC22019, 48 h
Summary of the method: as §1

Botrtyis cinerea (Bc) = assay: Growth inhibition assay of fungal pathogens, Bc; assay type: cell-based; details: 48 h, growth inhibition at 48 hours vs 2% DMSO control
Procedure: (§2) Compounds of the present invention were evaluated in a growth inhibition assay to determine the ability to control the growth of fungal pathogens, such as Botrtyis cinerea (Bc), Collectotrichum graminicola (Cg), Diplodia maydis (Dm), Fusarium moniliforme (Fm), Fusarium virguliforme (Fv), Phytophthora capsici (Pc), Rhizoctonia solani (Rs), and Septoria tritici (St).
(§3) Compounds to be tested were dissolved in DMSO at 2.5 mg/ml to produce compound stock solutions (“stocks”). Stocks were diluted with DMSO by a five-fold dilution in a 96-well stock plate, and two sets of final concentrations of 50, 10, and 2 ppm or 2, 0.4, and 0.08 ppm were obtained in vitro. A set of positive controls was also prepared, with various concentrations of Soraphen (2, 0.4, and 0.08 ppm), Metalaxyl (1.1, 0.22, and 0.04 ppm), and Metconazole (2, 0.4, and 0.08 ppm or 0.2, 0.04, and 0.008 ppm) after the five-fold dilutions. Negative controls on each plate included 2% DMSO, water, and a blank (media+2% DMSO).
(§4) Fungal spores were isolated from previously sub-cultured plates of Botrtyis cinerea (Bc), Collectotrichum graminicola (Cg), Diplodia maydis (Dm), Fusarium moniliforme (Fm), Fusarium virguliforme (Fv), Phytophthora capsici (Pc), and Septoria tritici (St). The isolated spores were diluted to individual concentrations with a 17% V8 liquid media. For Rhizoctonia solani (Rs) and Pythium irregulare, 1.5 mm mycelial plugs were used in place of spores and/4 Potato Dextrose Broth (PDB) was used for dilution. The spore concentrations and plug sizes were based on growth curves generated at 48 hours for each pathogen.
(§5) In a second 96-well plate, the spores or mycelial plugs, media, diluted compound solutions, and controls were combined. Once the compound was added, a true final concentration of compound in each well was measured by an OD600 reading, which adjusted for any compound precipitation that might have occurred in the well. Plate readings were repeated at both 24 and 48 hours. The blank negative control was used as a background subtraction. Additional visual ratings were performed at both 24 and 48 hours for checking on precipitation and confirming efficacy. Visual and OD600 ratings of the compounds at 48 hours were compared to the 2% DMSO negative control, and the percent of pathogen growth inhibition was determined based on those values.

[1] = system: Collectotrichum graminicola (Cg); assay: Growth inhibition assay of fungal pathogens, Cg; assay type: cell-based; details: 48 h, growth inhibition at 48 hours vs 2% DMSO control
Procedure: as §2, §3, §4, §5

Diplodia maydis (Dm) = assay: Growth inhibition assay of fungal pathogens, Dm; assay type: cell-based; details: Stenocarpella maydis, 48 h, growth inhibition at 48 hours vs 2% DMSO control
Procedure: as §2, §3, §4, §5

[2] = system: Fusarium moniliforme (Fm); assay: Growth inhibition assay of fungal pathogens, Fm; assay type: cell-based; details: Fusarium verticillioides, 48 h, read-out: Concentration at 90% Inhibition Fm
Procedure: as §2, §3, §4, §5

[3] = system: Fusarium virguliforme (Fv); assay: Growth inhibition assay of fungal pathogens, Fv; assay type: cell-based; details: 48 h
Procedure: as §2, §3, §4, §5

[4] = system: Phytophthora capsici (Pc); assay: Growth inhibition assay of fungal pathogens, Pc; assay type: cell-based; details: 48 h
Procedure: as §2, §3, §4, §5

Rhizoctonia solani (Rs) = assay: Growth inhibition assay of fungal pathogens, Rs; assay type: cell-based; details: 48 h
Septoria tritici (St) = assay: Growth inhibition assay of fungal pathogens, St; assay type: cell-based; details: Zymoseptoria tritici, 48 h, growth inhibition at 48 hours vs 2% DMSO control
Procedure: as §2, §3, §4, §5

fungal (fACC2) = fungal (fACC2) (UniProt Q00955); details: read-out: fACC2 (in vitro ACC2 Inhibition Assay, IC50), ADP-Glo, 5 nM ACC2, 20 μM ATP, 20 μM acetyl-CoA
fungal (fACC2), sequence (Q00955 whole entry): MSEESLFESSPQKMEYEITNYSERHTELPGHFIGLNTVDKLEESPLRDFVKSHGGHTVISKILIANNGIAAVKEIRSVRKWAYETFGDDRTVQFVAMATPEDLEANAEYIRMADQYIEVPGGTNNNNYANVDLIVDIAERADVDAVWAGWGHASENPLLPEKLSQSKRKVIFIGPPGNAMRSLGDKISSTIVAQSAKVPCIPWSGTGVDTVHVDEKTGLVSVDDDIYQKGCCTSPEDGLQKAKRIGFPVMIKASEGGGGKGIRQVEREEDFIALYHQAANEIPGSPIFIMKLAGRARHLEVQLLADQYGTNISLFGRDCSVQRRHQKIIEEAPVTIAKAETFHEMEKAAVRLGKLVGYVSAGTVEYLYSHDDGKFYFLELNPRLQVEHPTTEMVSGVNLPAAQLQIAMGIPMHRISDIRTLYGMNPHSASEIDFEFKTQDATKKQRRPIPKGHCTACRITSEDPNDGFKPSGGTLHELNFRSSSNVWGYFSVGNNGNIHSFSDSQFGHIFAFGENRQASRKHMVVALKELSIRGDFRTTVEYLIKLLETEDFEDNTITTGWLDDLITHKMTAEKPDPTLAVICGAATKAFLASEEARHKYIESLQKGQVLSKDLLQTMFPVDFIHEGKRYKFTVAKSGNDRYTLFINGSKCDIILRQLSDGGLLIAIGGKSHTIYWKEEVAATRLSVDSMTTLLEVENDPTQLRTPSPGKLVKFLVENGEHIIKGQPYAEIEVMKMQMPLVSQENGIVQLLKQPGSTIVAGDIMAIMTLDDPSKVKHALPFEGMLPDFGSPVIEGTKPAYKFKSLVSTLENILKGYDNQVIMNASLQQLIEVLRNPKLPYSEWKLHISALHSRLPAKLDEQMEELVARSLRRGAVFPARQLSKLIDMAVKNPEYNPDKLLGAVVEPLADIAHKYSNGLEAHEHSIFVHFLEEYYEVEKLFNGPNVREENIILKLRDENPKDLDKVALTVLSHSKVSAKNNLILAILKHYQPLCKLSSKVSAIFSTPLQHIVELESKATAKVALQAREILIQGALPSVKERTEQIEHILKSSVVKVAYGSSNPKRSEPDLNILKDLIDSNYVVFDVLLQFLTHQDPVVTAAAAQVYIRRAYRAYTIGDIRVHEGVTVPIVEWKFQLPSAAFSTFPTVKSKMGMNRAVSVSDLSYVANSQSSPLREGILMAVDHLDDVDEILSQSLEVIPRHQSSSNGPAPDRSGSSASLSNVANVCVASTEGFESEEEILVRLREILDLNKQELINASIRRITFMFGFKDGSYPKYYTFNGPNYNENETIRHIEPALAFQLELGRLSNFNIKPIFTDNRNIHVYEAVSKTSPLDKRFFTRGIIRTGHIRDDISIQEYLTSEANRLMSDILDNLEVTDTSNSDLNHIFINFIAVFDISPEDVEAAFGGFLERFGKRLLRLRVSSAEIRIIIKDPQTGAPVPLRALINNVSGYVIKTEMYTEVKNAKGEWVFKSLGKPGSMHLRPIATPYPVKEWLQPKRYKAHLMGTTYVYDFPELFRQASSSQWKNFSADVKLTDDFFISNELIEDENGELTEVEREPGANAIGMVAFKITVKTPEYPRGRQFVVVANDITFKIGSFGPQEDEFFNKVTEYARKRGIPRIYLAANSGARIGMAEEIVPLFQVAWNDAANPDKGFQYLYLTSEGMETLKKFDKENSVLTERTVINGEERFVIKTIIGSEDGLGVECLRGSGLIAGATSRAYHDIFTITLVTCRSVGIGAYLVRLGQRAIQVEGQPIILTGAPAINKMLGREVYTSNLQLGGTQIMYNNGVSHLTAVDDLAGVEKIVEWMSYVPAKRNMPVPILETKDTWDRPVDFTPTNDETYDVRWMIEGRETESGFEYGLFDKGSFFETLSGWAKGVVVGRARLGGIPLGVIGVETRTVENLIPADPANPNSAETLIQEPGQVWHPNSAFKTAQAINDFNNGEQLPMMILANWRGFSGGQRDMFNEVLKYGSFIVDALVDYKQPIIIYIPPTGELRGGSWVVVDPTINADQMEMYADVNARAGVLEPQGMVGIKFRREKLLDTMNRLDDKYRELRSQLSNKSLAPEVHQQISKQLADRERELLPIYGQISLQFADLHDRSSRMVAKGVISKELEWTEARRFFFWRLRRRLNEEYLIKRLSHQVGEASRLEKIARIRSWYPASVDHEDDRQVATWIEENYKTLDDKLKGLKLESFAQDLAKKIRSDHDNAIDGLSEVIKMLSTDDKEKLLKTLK

[5] = read-out: MIC, C. albicans ATCC 90028, Table 3a, 3 replicates, MIC recorded at 48 h
[6] = read-out: MIC, C. albicans ATCC 90028, Table 3b (additional results), 3 replicates, MIC recorded at 48 h
[7] = read-out: MIC, C. krusei ATCC 6258, Table 3a, 3 replicates, MIC recorded at 48 h
[8] = read-out: MIC, C. krusei ATCC 6258, Table 3b (additional results), 3 replicates, MIC recorded at 48 h
[9] = read-out: MIC, C. parapsilosis ATCC 22019, Table 3a, 3 replicates, MIC recorded at 48 h
[10] = read-out: MIC, C. parapsilosis ATCC 22019, Table 3b (additional results), 3 replicates, MIC recorded at 48 h
[11] = read-out: Concentration at 90% Inhibition Bc, Botrtyis cinerea
[12] = read-out: Concentration at 90% Inhibition Cg, Collectotrichum graminicola
[13] = read-out: Concentration at 90% Inhibition Dm, Diplodia maydis
[14] = read-out: Concentration at 90% Inhibition Fv, Fusarium virguliforme, growth inhibition at 48 hours vs 2% DMSO control
[15] = read-out: Concentration at 90% Inhibition Pc, Phytophthora capsici, growth inhibition at 48 hours vs 2% DMSO control
[16] = read-out: Concentration at 90% Inhibition Rs, Rhizoctonia solani, mycelial plugs, growth inhibition at 48 hours vs 2% DMSO control
[17] = read-out: Concentration at 90% Inhibition St, Septoria tritici

human (hACC2), sequence (O00763 whole entry): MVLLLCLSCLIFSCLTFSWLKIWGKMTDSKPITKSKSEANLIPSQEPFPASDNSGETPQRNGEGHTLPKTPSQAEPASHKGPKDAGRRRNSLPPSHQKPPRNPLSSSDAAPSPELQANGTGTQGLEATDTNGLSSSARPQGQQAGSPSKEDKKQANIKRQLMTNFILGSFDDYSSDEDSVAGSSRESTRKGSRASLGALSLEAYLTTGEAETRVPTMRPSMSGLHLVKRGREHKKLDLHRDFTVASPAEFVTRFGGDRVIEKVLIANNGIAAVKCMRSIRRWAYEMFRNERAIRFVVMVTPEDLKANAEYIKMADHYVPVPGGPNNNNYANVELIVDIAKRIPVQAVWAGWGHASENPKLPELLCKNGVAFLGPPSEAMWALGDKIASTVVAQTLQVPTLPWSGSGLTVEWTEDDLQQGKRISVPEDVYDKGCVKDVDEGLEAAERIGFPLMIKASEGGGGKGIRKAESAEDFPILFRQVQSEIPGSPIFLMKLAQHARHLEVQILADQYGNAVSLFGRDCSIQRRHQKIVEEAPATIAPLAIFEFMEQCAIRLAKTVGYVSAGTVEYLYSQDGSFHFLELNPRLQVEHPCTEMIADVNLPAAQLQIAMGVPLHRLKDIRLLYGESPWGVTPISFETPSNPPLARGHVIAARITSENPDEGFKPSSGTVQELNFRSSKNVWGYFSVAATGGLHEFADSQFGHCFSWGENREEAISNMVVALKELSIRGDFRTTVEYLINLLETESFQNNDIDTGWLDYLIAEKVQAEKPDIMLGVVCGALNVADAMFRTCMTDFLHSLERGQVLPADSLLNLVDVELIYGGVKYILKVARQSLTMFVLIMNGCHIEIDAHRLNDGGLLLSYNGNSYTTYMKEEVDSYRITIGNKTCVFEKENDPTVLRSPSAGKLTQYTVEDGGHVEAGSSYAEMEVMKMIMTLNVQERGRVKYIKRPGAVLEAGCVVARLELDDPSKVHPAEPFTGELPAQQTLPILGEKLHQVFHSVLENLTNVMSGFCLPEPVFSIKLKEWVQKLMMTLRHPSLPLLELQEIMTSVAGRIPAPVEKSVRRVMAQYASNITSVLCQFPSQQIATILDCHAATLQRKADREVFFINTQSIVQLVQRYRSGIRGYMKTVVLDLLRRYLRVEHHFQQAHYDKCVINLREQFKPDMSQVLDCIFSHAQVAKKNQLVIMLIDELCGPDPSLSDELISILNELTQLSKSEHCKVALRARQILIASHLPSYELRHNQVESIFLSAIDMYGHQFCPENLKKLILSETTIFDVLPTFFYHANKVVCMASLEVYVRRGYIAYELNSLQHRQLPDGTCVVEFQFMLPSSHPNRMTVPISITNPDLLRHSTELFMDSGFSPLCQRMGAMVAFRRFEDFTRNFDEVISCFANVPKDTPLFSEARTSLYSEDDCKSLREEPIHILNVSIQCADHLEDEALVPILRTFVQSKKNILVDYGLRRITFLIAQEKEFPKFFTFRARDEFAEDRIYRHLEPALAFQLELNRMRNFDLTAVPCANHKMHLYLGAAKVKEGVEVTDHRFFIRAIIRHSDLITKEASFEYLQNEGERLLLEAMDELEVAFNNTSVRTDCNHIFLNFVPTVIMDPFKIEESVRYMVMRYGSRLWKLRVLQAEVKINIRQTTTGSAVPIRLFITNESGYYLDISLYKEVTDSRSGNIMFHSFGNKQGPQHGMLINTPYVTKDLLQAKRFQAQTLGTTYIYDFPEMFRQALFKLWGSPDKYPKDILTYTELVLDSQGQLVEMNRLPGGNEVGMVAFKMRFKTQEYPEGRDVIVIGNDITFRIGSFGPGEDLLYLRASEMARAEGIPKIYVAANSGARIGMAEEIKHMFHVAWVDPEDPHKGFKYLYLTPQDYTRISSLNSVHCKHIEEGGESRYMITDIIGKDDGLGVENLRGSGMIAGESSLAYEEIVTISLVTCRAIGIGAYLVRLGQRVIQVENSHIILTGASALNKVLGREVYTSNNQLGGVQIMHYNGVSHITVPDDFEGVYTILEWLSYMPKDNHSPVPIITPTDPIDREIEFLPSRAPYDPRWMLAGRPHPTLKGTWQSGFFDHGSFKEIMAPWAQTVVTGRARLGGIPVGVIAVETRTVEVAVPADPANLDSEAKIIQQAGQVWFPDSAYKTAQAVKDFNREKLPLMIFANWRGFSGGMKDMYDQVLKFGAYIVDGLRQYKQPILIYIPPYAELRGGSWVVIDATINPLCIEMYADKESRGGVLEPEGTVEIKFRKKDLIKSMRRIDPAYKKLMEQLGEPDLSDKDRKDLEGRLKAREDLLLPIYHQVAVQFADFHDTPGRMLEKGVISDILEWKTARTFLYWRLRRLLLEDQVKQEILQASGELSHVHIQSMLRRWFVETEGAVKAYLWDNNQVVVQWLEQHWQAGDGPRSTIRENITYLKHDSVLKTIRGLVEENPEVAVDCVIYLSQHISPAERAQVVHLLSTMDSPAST

Work on `COc1ccccc1[C@H](Cn1c(=O)n(C(C)(C)C(=O)NC(C)C)c(=O)c2c(C)c(-n3nccn3)sc21)OCCC#N` [Compound I-136, 2-[1-[(2R)-2-(2-cyanoethoxy)-2-(2-methoxyphenyl)ethyl]-5-methyl-2,4-dioxo-6-(2H-1,2,3-triazol-2-yl)-1H,2H,3H,4H-thieno[2,3-d]pyrimidin-3-yl]-2-methyl-N-(propan-2-yl)propanamide] yielded an IC50 (human (hACC2); Table 2a) of 5 to 10 nM, an IC50 (human (hACC2); Table 2b, additional results) of 5 to 10 nM and an MIC (C. albicans; [5]) of 0.25 to 1 µg/mL (≈ 0.431 to 1.73 µM). It also gave an MIC (C. albicans; [6]) of 1.01 to 2 µg/mL (≈ 1.74 to 3.45 µM), an MIC (C. krusei; [7]) of 0.06 to 0.24 µg/mL (≈ 0.104 to 0.414 µM) and an MIC (C. krusei; [8]) of 0.25 to 1 µg/mL (≈ 0.431 to 1.73 µM). It also gave an MIC (C. parapsilosis; [9]) of 0.25 to 1 µg/mL (≈ 0.431 to 1.73 µM), an MIC (C. parapsilosis; [10]) of 0.25 to 1 µg/mL (≈ 0.431 to 1.73 µM) and an IC90 (Botrtyis cinerea (Bc); [11]) of 0.08 µg/mL (≈ 0.138 µM). For the same molecule, the IC90 [1, 12] was 0.08 µg/mL (≈ 0.138 µM), the IC90 (Diplodia maydis (Dm); [13]) was 0.08 µg/mL (≈ 0.138 µM) and the IC90 [2] was 0.08 µg/mL (≈ 0.138 µM). The IC90 [3, 14] was 0.4 µg/mL (≈ 0.69 µM), the IC90 [4, 15] was 2 µg/mL (≈ 3.45 µM) and the IC90 (Rhizoctonia solani (Rs); [16]) was 0.08 µg/mL (≈ 0.138 µM). The IC90 (Septoria tritici (St); [17]) was 2 µg/mL (≈ 3.45 µM), the IC50 (fungal (fACC2); Table 2a) was 1 to 5 nM and the IC50 (fungal (fACC2); Table 2b, additional results) was 0.3 to 1 nM.

`COc1ccc(F)cc1[C@H](Cn1c(=O)n([C@H](C)C(=O)NC(C)C)c(=O)c2c(C)c(-n3nccn3)sc21)OCCC#N` [Compound I-138] showed an IC50 (human (hACC2); Table 2a) of 1 to 5 nM, an IC50 (human (hACC2); Table 2b, additional results) of 1 to 5 nM and an MIC (C. albicans; [5]) of 0.25 to 1 µg/mL (≈ 0.428 to 1.71 µM). For the same molecule, the MIC (C. albicans; [6]) was greater than 4.01 µg/mL, the MIC (C. krusei; [7]) was 0.25 to 1 µg/mL (≈ 0.428 to 1.71 µM) and the MIC (C. krusei; [8]) was 2.01 to 4 µg/mL (≈ 3.44 to 6.85 µM). For the same molecule, the MIC (C. parapsilosis; [9]) was 0.25 to 1 µg/mL (≈ 0.428 to 1.71 µM), the MIC (C. parapsilosis; [10]) was 1.01 to 2 µg/mL (≈ 1.73 to 3.43 µM) and the IC90 (Botrtyis cinerea (Bc); [11]) was 0.4 µg/mL (≈ 0.685 µM). The IC90 [1, 12] was 0.08 µg/mL (≈ 0.137 µM), the IC90 (Diplodia maydis (Dm); [13]) was 0.08 µg/mL (≈ 0.137 µM) and the IC90 [2] was 0.08 µg/mL (≈ 0.137 µM). For the same molecule, the IC90 [3, 14] was 0.4 µg/mL (≈ 0.685 µM), the IC90 [4, 15] was 2 µg/mL (≈ 3.43 µM) and the IC90 (Rhizoctonia solani (Rs); [16]) was 0.08 µg/mL (≈ 0.137 µM). It also gave an IC90 (Septoria tritici (St); [17]) of 2 µg/mL (≈ 3.43 µM), an IC50 (fungal (fACC2); Table 2a) of 1 to 5 nM and an IC50 (fungal (fACC2); Table 2b, additional results) of 0.3 to 1 nM.

For `COc1ccc(F)cc1[C@H](Cn1c(=O)n([C@H](C)C(=O)N(C)C(C)C)c(=O)c2c(C)c(-n3nccn3)sc21)OCCC#N` [Compound I-139], the IC50 (human (hACC2); Table 2a) was 5 to 10 nM, the IC50 (human (hACC2); Table 2b, additional results) was 1 to 5 nM and the MIC (C. albicans; Table 3a, ATCC 90028, 3 replicates, MIC recorded at 48 h, read-out: MIC, C. albicans ATCC 90028) was 0.25 to 1 µg/mL (≈ 0.418 to 1.67 µM). For the same molecule, the MIC (C. albicans; Table 3b (additional results), ATCC 90028, 3 replicates, MIC recorded at 48 h, read-out: MIC, C. albicans ATCC 90028) was 2.01 to 4 µg/mL (≈ 3.36 to 6.69 µM), the MIC (C. krusei; Table 3a, ATCC 6258, 3 replicates, MIC recorded at 48 h, read-out: MIC, C. krusei ATCC 6258) was 0.25 to 1 µg/mL (≈ 0.418 to 1.67 µM) and the MIC (C. krusei; Table 3b (additional results), ATCC 6258, 3 replicates, MIC recorded at 48 h, read-out: MIC, C. krusei ATCC 6258) was 2.01 to 4 µg/mL (≈ 3.36 to 6.69 µM). For the same molecule, the MIC (C. parapsilosis; Table 3a, ATCC 22019, 3 replicates, MIC recorded at 48 h, read-out: MIC, C. parapsilosis ATCC 22019) was 1.1 to 2 µg/mL (≈ 1.84 to 3.35 µM), the MIC (C. parapsilosis; Table 3b (additional results), ATCC 22019, 3 replicates, MIC recorded at 48 h, read-out: MIC, C. parapsilosis ATCC 22019) was 2.01 to 4 µg/mL (≈ 3.36 to 6.69 µM) and the IC90 (Botrtyis cinerea (Bc); Botrtyis cinerea, read-out: Concentration at 90% Inhibition Bc) was 0.4 µg/mL (≈ 0.669 µM). It also gave an IC90 ([1]; Collectotrichum graminicola, read-out: Concentration at 90% Inhibition Cg) of 0.4 µg/mL (≈ 0.669 µM), an IC90 (Diplodia maydis (Dm); Diplodia maydis, read-out: Concentration at 90% Inhibition Dm) of 0.08 µg/mL (≈ 0.134 µM) and an IC90 ([2]; Fusarium moniliforme, growth inhibition at 48 hours vs 2% DMSO control) of 0.4 µg/mL (≈ 0.669 µM). It also gave an IC90 ([3]; growth inhibition at 48 hours vs 2% DMSO control, read-out: Concentration at 90% Inhibition Fv) of 0.4 µg/mL (≈ 0.669 µM), an IC90 ([4]; growth inhibition at 48 hours vs 2% DMSO control, read-out: Concentration at 90% Inhibition Pc) greater than 50 µg/mL and an IC90 (Rhizoctonia solani (Rs); mycelial plugs, growth inhibition at 48 hours vs 2% DMSO control, read-out: Concentration at 90% Inhibition Rs) of 0.08 µg/mL (≈ 0.134 µM). The IC90 (Septoria tritici (St); Septoria tritici, read-out: Concentration at 90% Inhibition St) was greater than 50 µg/mL, the IC50 (fungal (fACC2); Table 2a) was 5 to 10 nM and the IC50 (fungal (fACC2); Table 2b, additional results) was 1 to 5 nM.

Source: patent US10800791B2, “Triazole ACC inhibitors and uses thereof” (Gilead Apollo, LLC, priority 2015, dated 2020)
